Laboratory results from patent US9884863B2, “STAT3 inhibitor” (Board of Regents, The University of Texas System, priority 2013, dated 2018).
Like-named read-outs stand apart in the source and are kept apart here.

What was measured:
AsPC1 = experiment: MTS cell proliferation assay, AsPC1; type: cell-based, human
Description: (§1) Cancer cells (breast cancer cell lines MCF-7, MDA-MB-361, SKBR3 and MDA-MB-231, pancreatic cancer cell lines AsPC-1. BxPC3 and Panc-1) were seeded in 96-well plates at a density of 1000-2000 cells/well and treated with DMSO, 0.01, 0.1, 1, 5, 10, and […] of STAT3 individual inhibitors for 72 hrs. Proliferation was measured by treating cells with the 3-(4,5-dimethylthiazol-2-yl)-5-(3-carboxymethoxyphenyl)-2-(4-sulfophenyl)-2H-tetrazolium) (MTS) in a CellTiter 96t AQueous Non-Radioactive Cell Proliferation Assay kit from Promega, Madison, Wis., USA). Absorbance of all wells was determined by measuring OD at 550 nm after 1 hr incubation at 37° C. on a 96-well iMark™ Microplate Absorbance Reader (BioRad, Hercules, Calif.). Each individual compound was tested in quadruplicate wells for each concentration, and the results were reported as mean absorption±s.e.
(§2) In Vitro Determination of Effects of Synthesized Compounds on Cancer Cell Proliferation. Cancer cells (breast cancer cell lines MCF-7 and MDA-MB-231, pancreatic cancer cell lines AsPC-1 and Panc-1) were seeded in 96-well plates at a density of 2×10^3 cells/well and treated with DMSO, 0.01, 0.1, 1, 5, 10, and 100 μM of individual STAT3 inhibitors for 72 h. Proliferation was measured by treating cells with the 3-(4,5-dimethylthiazol-2-yl)-5-(3-carboxymethoxyphenyl)-2-(4-sulfophenyl)-2H-tetrazolium) (MTS) in a CellTiter 96t Aqueous Non-Radioactive Cell Proliferation Assay kit (Promega, Madison, Wis., USA). Absorbance of all wells was determined by measuring OD at 550 nm after 1 h incubation at 37° C. on a 96-well iMark™ Microplate Absorbance Reader (BioRad, Hercules, Calif.). Each individual compound was tested in quadruplicate wells for each concentration.

Panc-1 = experiment: MTS cell proliferation assay, Panc-1; type: cell-based, human
Description: as §1, §2

[1] = type: in vivo; conditions: mouse, in vivo, 150 mg/kg
Description: Female nude mice at 4 to 6 wk of age were obtained from MDACC ERO facility. The mice were maintained in a barrier unit with 12 hours light-dark switch room and all materials were autoclaved. Freshly harvested MDA-MB-231 cells (2.5×10^6 cells per mouse, resuspended in 100 μl PBS) were injected into the 3rd mammary fat pad of the mice, and then mice were randomly assigned into control and treatment groups (≧6 mice per group). Treatment started when the xenograft mammary tumors reaches a volume of 200 mm^3. […] Mice were monitored daily for general health conditions (body weight, fur coat condition and posture) and toxicity (hair loss, skin rash, abdominal distension). […] Tumor volume was calculated as V=W^2×L/2, where L=longer diameter (mm) and W=width of short diameter (mm). […]
Female nude mice were obtained from MDACC and were used for orthotopic tumor studies at 4 to 6 weeks of age. […] Body weights and tumors volume were measured daily and tumor volume was calculated according to the formula V=0.5×L×W^2, where L=length (mm) and W=width (mm).
Twenty-two female nude mice (8 wks of age) were obtained from MDACC ERC Center. […] Body weights and tumors volume were measured daily and tumor volume calculated using the formula V=0.5×L×W^2, where L=length (mm) and W=width (mm) of xenograft tumors. Signs of toxicity were recorded individually. […]

MDA-MB-231 = experiment: MTS cell proliferation assay, MDA-MB-231; type: cell-based, human
Outline: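 Cells are exposed to DMSO or STAT3 inhibitors at 0.01-100 μM for 72 h, or at 1, 5 and 10 μM. Proliferation is read by MTS absorbance at 550 or 560 nm after 1 h at 37 °C. Each concentration is run in quadruplicate wells.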

MCF-7 = experiment: MTS cell proliferation assay, MCF-7; type: cell-based, human
Outline: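 MCF-7 human breast cancer cells were exposed to test compounds at a range of concentrations, then proliferation was measured with the MTS reagent from Promega's CellTiter 96 AQueous Non-Radioactive Cell Proliferation Assay kit. After 1 hr at 37° C., OD at 550 nm was read on a 96-well iMark Microplate Absorbance Reader, with quadruplicate wells per concentration.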

[2] = system: STAT3 promoter activity in MDA-MB-231 cells; experiment: Transient transfection and dual luciferase reporter assay (pSTAT3-Luc); type: cell-based, human; conditions: Homo sapiens, MDA-MB-231, read-out: inhibition of STAT3 promoter activity at 5 μM; 24 h, compared with control; Example 4 numbering
Description: MDA-MB-231 cells were pre-treated with niclosamide or 11 at different concentrations for 24 h. The STAT3 promoter activity in MDA-MB-231 cells was determined after transient transfecting with pSTAT3-Luc vector.
Transient Transfection and Dual Luciferase Reporter Assays. MBA-MB-231 cells were seeded in 24-well plate at a density of 5×10^4 cells/well in RPMI-1640 medium containing 10% FBS and 1% penicillin-streptomycin. Transient transfections were performed 4 h after plating, using the method described previously (Rees, D. C. et al., 2004; Shen, Q. et al., 2008). Total amount of DNA for transfections was 0.5 μg/well, including pSTAT3-Luc (95%, obtained from Panomics, Cat# LR0077) and internal control vector renilla (5%, from Promega, Madison, Wis., USA). 5 h after transfection, the cells were treated with compound […] for 24 h, then reporter activity was evaluated using dual luciferase reporter assay kit (Promega, Madison, Wis., USA) on an Omega™ Microplate Luminometer (BMG LABTECH Inc., NC, USA). Relative luciferase units were the ratio of the absolute activity of firefly luciferase to that of renilla luciferase. Experiments were conducted with triplicates and results are representatives of at least 3 independent experiments.

[3] = system: MCF-7, MDA-MB-231, AsPC1 and Panc-1; experiment: MTS proliferation assays, breast and pancreatic cancer cell line panel; type: cell-based, human; conditions: Example 4 numbering
Description: as §2

SKBR3 = experiment: MTS cell proliferation assay, SKBR3; type: cell-based; conditions: Homo sapiens, SK-BR-3; ER-negative breast cancer, 72 hrs; >10 = no effect; read-out: IC50 SKBR3 (Table 1)
Description: as §1

MDA-MB-361 = experiment: MTS cell proliferation assay, MDA-MB-361; type: cell-based; conditions: Homo sapiens, ER-positive breast cancer, 72 hrs, >10 = no effect, read-out: IC50 MDA-MB-361 (Table 1)
Description: as §1

BxPc-3H = experiment: MTS cell proliferation assay, BxPc-3H; type: cell-based; conditions: Homo sapiens; pancreatic cancer, 72 hrs; >10 = no effect; read-out: IC50 BxPc-3H (Table 1)
Description: as §1

[4] = system: MDA-MB-231 xenograft tumors; experiment: MDA-MB-231 xenograft tumor growth in nude mice; type: in vivo; conditions: i.p., 2.5, 7.5 and 12.5 mg/kg
[5] = Homo sapiens, MDA-MB-231, Example 4 numbering, 72 h, >10 = no effect, read-out: IC50 MDA-MB-231 (Table 5)
[6] = Homo sapiens, MCF7; Example 4 numbering, 72 h; >10 = no effect; read-out: IC50 MCF-7 (Table 5)
[7] = Homo sapiens, ASPC1, pancreatic cancer, 72 hrs, >10 = no effect, read-out: IC50 AsPC1 (Table 1)
[8] = Homo sapiens, PANC-1, pancreatic cancer, 72 hrs, >10 = no effect, read-out: IC50 Panc-1 (Table 1)
[9] = Homo sapiens, MDA-MB-231, ER-negative breast cancer, 72 hrs, >10 = no effect, read-out: IC50 MDA-MB-231 (Table 1)
[10] = Homo sapiens, MCF7, 72 h; read-out: IC50 MCF-7 (Table 1)
[11] = MCF-7, 48 hr, μM concentrations

**Q.** What does the source list for O=C(Nc1ccc2c(c1)S(=O)(=O)C=C2)c1cc(-c2ccccc2)nc2ccccc12 [Compound 5]?
**A.** IC50 (AsPC1; Homo sapiens, ASPC1, 72 h, read-out: IC50 AsPC1 (Table 4)): 1.25 µM; IC50 (AsPC1; Homo sapiens, ASPC1, 72 h, read-out: IC50 AsPC1 (Table 5)): 1.25 µM; IC50 (Panc-1; Homo sapiens, PANC-1, 72 h, read-out: IC50 Panc-1 (Table 4)): 0.26 µM; IC50 (Panc-1; Homo sapiens, PANC-1, 72 h, read-out: IC50 Panc-1 (Table 5)): 0.26 µM; signs of toxicity at 150 mg/kg [1]: did not show significant signs of toxicity; IC50 (MDA-MB-231; Homo sapiens, MDA-MB-231, 72 h, read-out: IC50 MDA-MB-231 (Table 4)): 0.29 µM; IC50 (MDA-MB-231; Homo sapiens, MDA-MB-231, 72 h, read-out: IC50 MDA-MB-231 (Table 5)): 0.29 µM; IC50 (MCF-7; Homo sapiens, MCF7, 72 h, read-out: IC50 MCF-7 (Table 4)): 0.1 µM; IC50 (MCF-7; Homo sapiens, MCF7, 72 h, read-out: IC50 MCF-7 (Table 5)): 0.1 µM; inhibition at 5 µM [2]: ~65%

**Q.** Which melting point does the source give for O=C(Nc1ccc2c(c1)S(=O)(=O)C=C2)c1ccncc1 [Compound 21, N-(1,1-Dioxo-1H-1λ^6-benzo[b]thiophen-6-yl)isonicotinamide] here?
**A.** 251 to 252 °C

**Q.** And the “antiproliferative activity in words (Example 4)” value [3]?
**A.** moderate to low antiproliferative activity

**Q.** What about the IC50 (MDA-MB-231; [5]) of the same compound?
**A.** > 10 µM

**Q.** What about the IC50 (MCF-7; [6]) of the same compound?
**A.** > 10 µM

**Q.** With O=C(Nc1ccc2c(c1)S(=O)(=O)C=C2)c1ccnc(-c2ccccc2)c1 [Compound 22, N-(1,1-Dioxo-1H-1λ^6-benzo[b]thiophen-6-yl)-2-phenyl-isonicotinamide] as the compound, how does the IC50 (AsPC1; Homo sapiens, ASPC1, Example 4 numbering, 72 h, >10 = no effect, read-out: IC50 AsPC1 (Table 5)) read?
**A.** 1.3 µM

**Q.** And the IC50 (Panc-1; Homo sapiens, PANC-1, Example 4 numbering, 72 h, >10 = no effect, read-out: IC50 Panc-1 (Table 5))?
**A.** 3.35 µM

**Q.** What about the melting point of the same compound?
**A.** 285 to 286 °C

**Q.** What about the “antiproliferative activity in words (Example 4)” value [3] of the same compound?
**A.** low micromolar IC50 values

**Q.** What about the IC50 (MDA-MB-231; [5]) of the same compound?
**A.** 1.85 µM

**Q.** And the IC50 (MCF-7; [6])?
**A.** 3.78 µM

**Q.** Which IC50 (SKBR3) does the source give for O=C(Nc1ccc2c(c1)S(=O)(=O)C=C2)c1c2ccccc2nc2ccccc12 [HJC-1-41, Acridine-9-carboxylic acid (1,1-dioxo-1H-1λ^6-benzo[b]thiophen-6-yl)amide] here?
**A.** > 10 µM

**Q.** And the IC50 (AsPC1; Homo sapiens, ASPC1, 72 h, read-out: IC50 AsPC1 (Table 1))?
**A.** > 10 µM

**Q.** What about the IC50 (Panc-1; Homo sapiens, PANC-1, 72 h, read-out: IC50 Panc-1 (Table 1)) of the same compound?
**A.** > 10 µM

**Q.** What about the IC50 (MDA-MB-361) of the same compound?
**A.** 170 µM

**Q.** And the IC50 (MDA-MB-231; Homo sapiens, MDA-MB-231, 72 h, read-out: IC50 MDA-MB-231 (Table 1))?
**A.** > 10 µM

**Q.** What about the IC50 (BxPc-3H) of the same compound?
**A.** > 10 µM

**Q.** What about the IC50 (MCF-7; Homo sapiens, MCF7, 72 h, read-out: IC50 MCF-7 (Table 1)) of the same compound?
**A.** > 10 µM

**Q.** With O=C(Nc1ccc2c(c1)S(=O)(=O)C=C2)c1cc(Cl)ccc1O [HJC-1-49, 5-Chloro-N-(1,1-dioxo-1H-1λ^6-benzo[b]thiophen-6-yl)-2-hydroxybenzamide] as the compound, how does the IC50 (SKBR3) read?
**A.** 0.72 µM

**Q.** And the IC50 (AsPC1; [7])?
**A.** 1.92 µM

**Q.** What about the IC50 (Panc-1; [8]) of the same compound?
**A.** 2.34 µM

**Q.** What about the IC50 (MDA-MB-361) of the same compound?
**A.** 2.37 µM

**Q.** And the IC50 (MDA-MB-231; [9])?
**A.** 1.64 µM

**Q.** What about the IC50 (BxPc-3H) of the same compound?
**A.** 1.16 µM

**Q.** What about the IC50 (MCF-7; [10]) of the same compound?
**A.** 0.91 µM

**Q.** And the “inhibition on breast cancer cell proliferation (FIG. 1)” value (MCF-7; [11])?
**A.** significant inhibition

**Q.** What does the source list for O=C(Nc1nnc(-c2ccco2)o1)c1cc(Cl)ccc1O [HJC-1-51, 5-Chloro-N-(5-furan-2-yl-[1,3,4]oxadiazol-2-yl)-2-hydroxybenzamide]?
**A.** IC50 (SKBR3): 42.4 µM; IC50 (AsPC1; [7]): > 10 µM; IC50 (Panc-1; [8]): > 10 µM; IC50 (MDA-MB-361): > 10 µM; IC50 (MDA-MB-231; [9]): > 10 µM; IC50 (BxPc-3H): 200 µM; IC50 (MCF-7; [10]): > 10 µM

**Q.** With NCCOc1ccc(Cl)cc1C(=O)Nc1ccc([N+](=O)[O-])cc1Cl [HJC-1-52, 2-(2-Aminoethoxy)-5-chloro-N-(2-chloro-4-nitrophenyl)benzamide] as the compound, how does the IC50 (AsPC1; [7]) read?
**A.** 1.9 µM

**Q.** And the IC50 (Panc-1; [8])?
**A.** 1.08 µM

**Q.** And the IC50 (MDA-MB-361)?
**A.** 2.37 µM

**Q.** What about the IC50 (MDA-MB-231; [9]) of the same compound?
**A.** 1.64 µM

**Q.** What about the IC50 (BxPc-3H) of the same compound?
**A.** 1.07 µM

**Q.** What about the IC50 (MCF-7; [10]) of the same compound?
**A.** 0.91 µM

**Q.** And the “inhibition on breast cancer cell proliferation (FIG. 1)” value (MCF-7; [11])?
**A.** significant inhibition

**Q.** And the “growth of xenograft tumors (FIG. 3)” value [4]?
**A.** significantly suppresses tumor growth

**Q.** Which results are given for “Quinoline-3-carboxylic acid (1,1-dioxo-1H-1λ^6-benzo[b]thiophen-6-yl)amide [Compound 23]”?
**A.** IC50 (AsPC1; Example 4 numbering, 72 h, >10 = no effect, read-out: IC50 AsPC1 (Table 5)): 6.97 µM; IC50 (Panc-1; Example 4 numbering, 72 h, >10 = no effect, read-out: IC50 Panc-1 (Table 5)): 7.92 µM; antiproliferative activity in words (Example 4) [3]: moderate to low antiproliferative activity; IC50 (MDA-MB-231; Example 4 numbering, 72 h, >10 = no effect, read-out: IC50 MDA-MB-231 (Table 5)): 6.21 µM; IC50 (MCF-7; Example 4 numbering, 72 h; >10 = no effect; read-out: IC50 MCF-7 (Table 5)): 2.97 µM
